# From PubChem BioAssay (NCI)
#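 1) Cells in 96-well plates. 2) Compound, 48 h, 5 concentrations. 3) Linear interpolation between surrounding doses. 4) Unreached endpoint = highest concentration. GI50 is the concentration that inhibits growth by half. At the TGI there is no net growth.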
# Columns and labels:
# Assay in all cases: growth of human tumour cells (NCI), 48 h
# T-47D breast = system: T-47D breast
# EKVX NSCLC = system: EKVX NSCLC
# HCC-2998 colon = system: HCC-2998 colon
# MOLT-4 leukemia = system: MOLT-4 leukemia
# PC-3 prostate = system: PC-3 prostate
# BT-549 breast = system: BT-549 breast
# KM12 colon = system: KM12 colon
# HCT-116 colon = system: HCT-116 colon
# M14 melanoma = system: M14 melanoma
# MDA-MB-435 = system: MDA-MB-435
SMILES,TGI (T-47D breast),TGI (EKVX NSCLC),TGI (HCC-2998 colon),TGI (MOLT-4 leukemia),TGI (PC-3 prostate),GI50 (BT-549 breast),TGI (BT-549 breast),TGI (KM12 colon),GI50 (HCT-116 colon),TGI (HCT-116 colon),TGI (M14 melanoma),TGI (MDA-MB-435),GI50 (T-47D breast),GI50 (EKVX NSCLC),GI50 (HCC-2998 colon),GI50 (MOLT-4 leukemia),GI50 (PC-3 prostate),GI50 (KM12 colon),GI50 (M14 melanoma),GI50 (MDA-MB-435)
O=C(O)CCC(c1ccccc1)(c1ccccc1)c1ccccc1,> 60.3 µM,> 100 µM,> 100 µM,> 92.2 µM,> 100 µM,80.1 µM,> 100 µM,> 100 µM,43.6 µM,> 100 µM,> 100 µM,> 100 µM,–,–,–,–,–,–,–,–
Cn1c(CCCC(=O)O)nc2cc(N(CCCl)CCCl)ccc21,> 100 µM,> 100 µM,> 100 µM,22.6 µM,> 100 µM,> 77.5 µM,> 100 µM,> 100 µM,> 80.5 µM,> 100 µM,> 100 µM,> 100 µM,56.2 µM,> 100 µM,> 65.7 µM,3.6 µM,> 100 µM,> 100 µM,> 65.5 µM,> 75.5 µM
CC1(C)C(N2CCOCC2)CS1(=O)=O (configuration not stated),> 10 µM,> 10 µM,> 10 µM,> 10 µM,> 10 µM,–,> 10 µM,> 10 µM,–,> 10 µM,> 10 µM,> 10 µM,–,–,–,–,–,–,–,–
O=C(/C=C/c1ccccc1)c1cccc2ccccc12,21.2 µM,12.6 µM,6.81 µM,5.68 µM,7.78 µM,2.31 µM,5.86 µM,3.77 µM,1.96 µM,4.1 µM,5.19 µM,14.7 µM,2.89 µM,2.75 µM,2.65 µM,1.43 µM,2.81 µM,1.89 µM,2.39 µM,2.64 µM
CC12OC(CC(O)C1O)n1c3ccccc3c3c4c(c5c6ccccc6n2c5c31)C(=O)N(CCN1CCOCC1)C4=O (configuration not stated),3.84 µM,8.94 µM,10.6 µM,4.26 µM,7.3 µM,1.61 µM,8.21 µM,6.5 µM,0.625 µM,5.51 µM,4.54 µM,7.56 µM,0.651 µM,1.48 µM,3.25 µM,0.23 µM,1.19 µM,1.25 µM,0.912 µM,1.46 µM
CN1CCN(CCCNC(=O)c2c3c(n4ccccc24)C(=O)c2ncccc2C3=O)CC1,5.28 µM,5.94 µM,4.07 µM,4.87 µM,9 µM,7.24 µM,20.6 µM,19.5 µM,0.632 µM,4.93 µM,2.6 µM,0.619 µM,1.88 µM,1.61 µM,1.04 µM,2.13 µM,1.37 µM,1.28 µM,1.21 µM,0.295 µM
COc1cccc2c1C(=O)c1c(O)c3c(c(O)c1C2=O)C[C@@](O)(/C(CO)=N/NC(=O)CCCCCN1C(=O)C=CC1=O)C[C@@H]3O[C@H]1C[C@H](N)[C@H](O)[C@H](C)O1,8.41 µM,> 75.9 µM,> 58.1 µM,28.3 µM,19.5 µM,1.21 µM,8.96 µM,> 100 µM,0.41 µM,> 100 µM,11 µM,13.4 µM,0.49 µM,3.1 µM,1.5 µM,0.392 µM,1.64 µM,1.98 µM,1.06 µM,2.03 µM
Cc1nc2sc(C(=O)Nc3cccc(Br)c3C)c(N)c2cc1C(O)c1ccccc1 (configuration not stated),67.7 µM,43.8 µM,2.12 µM,> 100 µM,37.7 µM,0.044 µM,2.93 µM,4.76 µM,0.0371 µM,11.8 µM,14.7 µM,0.0552 µM,0.0554 µM,0.283 µM,0.0351 µM,0.0556 µM,0.0462 µM,0.0373 µM,0.0306 µM,0.0198 µM
Cn1ncc(C#N)c1-c1ccc2c(c1)CN([C@H](CN)Cc1cccc(F)c1)C2=O,6.74 µM,> 92.1 µM,> 100 µM,27.4 µM,> 70.5 µM,0.477 µM,12.1 µM,> 100 µM,12.9 µM,28.7 µM,57.1 µM,> 67.7 µM,0.0519 µM,5.63 µM,5.96 µM,0.413 µM,0.393 µM,0.711 µM,14.2 µM,7.56 µM
